Data: the NIST ThermoML archive (doi:10.1021/je100170v)

Legend:
[1] = Liquid; for mass density / speed of sound: 101 kPa; for speed of sound: Sing-around technique in a fixed-path interferometer; for viscosity: 101.3 kPa
[2] = xn = mol fraction of the nth substance listed; settings: 101 kPa, Liquid; for speed of sound: Sing-around technique in a fixed-path interferometer

CC(=O)c1ccccc1 [acetophenone]
[1]
Settings	mass density [kg/m3]	speed of sound [m/s]	viscosity [mPa·s]
298.15 K	1023.1	1296.2	1.653
308.15 K	1014.9	–	1.411
318.15 K	1007.2	–	1.115

CC(=O)c1ccccc1 [acetophenone] + CCCCCCCCO
[2]
Settings	mass density, 298.15 K [kg/m3]	mass density, 308.15 K [kg/m3]	mass density, 318.15 K [kg/m3]	speed of sound, 298.15 K [m/s]	viscosity, 298.15 K [mPa·s]	viscosity, 308.15 K [mPa·s]	viscosity, 318.15 K [mPa·s]
x2 = 0	1023.1	1014.9	1007.2	1296.2	1.653	1.411	1.115
x2 = 0.093	997.7	989.7	982.4	1278.5	1.713	1.528	1.208
x2 = 0.1874	973.7	966.1	958.9	1266.5	1.831	1.669	1.327
x2 = 0.2834	951.2	943.6	936.6	1263.3	1.994	1.785	1.424
x2 = 0.3808	929.7	922.2	915.5	1264.7	2.205	1.949	1.535
x2 = 0.4799	909.3	902	895.3	1271.8	2.519	2.167	1.671
x2 = 0.5805	889.8	882.5	876	1281.8	2.997	2.4	1.807
x2 = 0.6828	871.3	864.1	857.7	1295.4	3.65	2.799	2.095
x2 = 0.7868	853.8	846.6	840.2	1311.1	4.475	3.249	2.432
x2 = 0.8925	837.1	829.9	823.6	1327.8	5.625	3.931	2.926

CCCCCCCCO [octan-1-ol]
[1]
Settings	mass density [kg/m3]	speed of sound [m/s]	viscosity [mPa·s]
298.15 K	821.5	1349.2	7.365
308.15 K	814	–	5.251
318.15 K	807.7	–	3.865

CCCCCCCCO [octan-1-ol] + CC(=O)N(C)C
[2], x1 = 1
Settings	mass density [kg/m3]	speed of sound [m/s]	viscosity [mPa·s]
298.15 K	821.5	1349.2	7.365
308.15 K	814	–	5.251
318.15 K	807.7	–	3.865

CCCCCCCCO [octan-1-ol] + CC(=O)c1ccccc1
[2], x1 = 1
Settings	mass density [kg/m3]	speed of sound [m/s]	viscosity [mPa·s]
298.15 K	821.5	1349.2	7.365
308.15 K	814	–	5.251
318.15 K	807.7	–	3.865

CCCCCCCCO [octan-1-ol] + COCCO
[2], x1 = 1
Settings	mass density [kg/m3]	speed of sound [m/s]	viscosity [mPa·s]
298.15 K	821.5	1349.2	7.365
308.15 K	814	–	5.251
318.15 K	807.7	–	3.865
